{"source": "patent US20220087987A1", "about": "“A METHOD FOR TREATING SWI/SNF COMPLEX-DEFICIENT CANCERS COMPRISING GLUTATHIONE (GSH) METABOLIC PATHWAY INHIBITOR” (National Cancer Center, priority 2018, published 2022)", "key": {"[1]": {"system": "TrxR (TrxR1, TrxR2 and TrxR3)", "assay": "Detection of TrxR activity", "assay_type": "cell-based, human", "conditions": "24 hrs", "protocol": "TrxR activity including TrxR1, TrxR2 and TrxR3 was measured using the Thioredoxin Reductase Assay Kit (Abcam). Cells were trypsinized, counted, reseeded at the specified density in 10 cm dishes and exposed to the indicated concentrations of APR-246. After 24 hrs, cells were washed with cold PBS and lysed with buffer containing a proteinase inhibitor. After centrifugation, the supernatant was supplemented with a TrxR inhibitor and incubated for 20 min at 25° C. Absorbance was measured using an Envision Multi-label plate reader (PerkinElmer). Relative TrxR ratios were normalized against untreated samples."}, "NOXA": {"system": "NOXA", "assay": "Quantitation of NOXA mRNA (quantitative RT-PCR)", "assay_type": "cell-based, human", "conditions": "ARID1A-KO cells and ARID1A-deficient cancer cells, 24 hrs", "protocol": "mRNA was extracted and cDNA was synthesized using the SuperPrep (Registered Trademark) Cell Lysis & RT Kit for qPCR (TOYOBO). Aliquots of cDNA were subjected to quantitative PCR using the SuperPrep/THUNDERBIRD Probe qPCR Set (TOYOBO) and TaqMan Gene Expression Assays (Life Technologies). The following gene-specific primer/probe sets were used: NOXA (PMAIP1) (Hs00560402 ml), NRF2 (NFE2L2) (Hs00975961 g_1), GCLC (Hs00155249 ml), GSS (Hs00609286_m1), and SLC7A11 (Hs00921938_m1). PCR was performed in an ABI StepOnePlus Real-Time PCR System (Life Technologies) under the following conditions: denaturation at 95° C. for 15 s, followed by annealing and extension at 60° C. for 30 s (40 cycles). For each sample, the mRNA levels of target genes were normalized against levels of GAPDH mRNA. The target/GAPDH ratios were then normalized against those in control samples using the 2-ΔΔCt method."}, "[2]": {"system": "ARID1A-KO cells and ARID1A-deficient cancer cells", "assay": "Apoptosis detection (cleaved caspase-3/7, Annexin V)", "assay_type": "cell-based, human", "protocol": "The Annexin V-FITC/PI Apoptosis Detection Kit (Sigma-Aldrich) was used to detect apoptotic cells. Briefly, the cell pellet was suspended in 1× binding buffer and then incubated with Annexin V-FITC and PI in the dark for 10 min. Fluorescence was analyzed on a Guava flow cytometer (Millipore). Data were analyzed using GuavaSoft software (v. 2.7). Relative ratios of the Annexin V-positive fraction in treated samples were normalized against untreated samples.\nGSH, ROS and apoptosis were detected using the GSH/GSSG-Glo Assay (Promega) and/or the GSH-Glo Assay (Promega), the ROS-Glo Assay (Promega), and the Caspase-Glo 3/7 Assay, respectively. To measure levels of GSH, ROS and apoptosis after drug treatment, cells were trypsinized, counted, reseeded at the specified density in 96-well plates and exposed to the indicated concentrations of drugs. After 16-48 hrs, luminescence was measured using an Envision Multi-label plate reader (PerkinElmer). […] Cells were trypsinized after a further 48 hrs, counted, and reseeded at the specified density in 96-well plates. After 72-120 hrs, luminescence was measured using an Envision Multi-label plate reader (PerkinElmer). Cell viability was also measured using the CellTiter-Glo Luminescent Cell Viability Assay (Promega). […] The GSH/GSSG ratio was calculated as the GSH-GSSG signal divided by the GSSG/2 signal. […]"}, "[3]": {"system": "ARID1A-deficient TOV21G OCCC xenografts", "assay": "Mouse xenograft model, TOV21G", "assay_type": "in vivo, mice", "conditions": "APR-246 50 mg/kg", "protocol": "All mouse experiments were approved by the National Cancer Center (NCC) animal Ethical Committee. Cells were counted and re-suspended in a 1:1 mixture of 100 μl culture medium and 100 μl Matrigel (BD Biosciences) on ice. […] In the subcutaneous model, once the tumors were palpable (about 3-14 days after implantation), mice were randomly divided into two groups. […] In the doxycycline (Dox) treatment study, TOV21G-shNT cells and TOV21G-shGCLC cells were injected into the flanks of 6-week-old female BALB/c-nu/nu mice. […] In other experiments, TOV21G-shNT cells and TOV21G-shGCLC cells were treated with Dox (0.5 μg/ml) for 4 days and then injected into the flank of 6-week-old female BALB/c-nu/nu mice. […] Tumor growth was measured every several days using calipers. The volume of implanted tumors was calculated using the formula V=L×W2/2, where V is volume (mm^3), L is the largest diameter (mm), and W is the smallest diameter (mm). At the end of the experiment, mice were sacrificed in accordance with standard protocols.\nGSH was detected using the GSH-Glo Assay (Promega). Tumor samples derived from xenografts were weighed and washed with PBS. The tumor samples were mixed with 50 μl of PBS and homogenized using a Mini Cordless Grinder (Funakoshi). PBS (950 μl) was added to homogenized tumor samples and centrifuged at 4° C. for 10 min at 15,000 rpm. Tumor extract and 2×GSH-Glo Reagent (25 μl of each) were mixed in white 96-well plates (Greiner) and incubated for 30 min at room temperature. Luciferin Detection Reagent (50 μl) was added and the samples were incubated for 15 min at room temperature. Luminescence was measured using an Envision Multi-label plate reader (PerkinElmer). GSH signal intensities per 1 mg of tumor sample were calculated.\nFormalin-fixed, paraffin-embedded ovarian cancer clinical specimens and TOV21G xenografts were deparaffinized and representative whole 4-μm-thick sections were analyzed by IHC. […] The samples were removed from the freezer and equilibrated at −20° C. for approximately 15 minutes before sectioning. Tissue sections (6 μm thick) were placed on positively charged slides, dried, and fixed for 15 minutes at room temperature in 3% formaldehyde, followed by 5 minutes in methanol at −20° C. After fixation, representative sections were analyzed by IHC. […] All IHC staining was performed using a Dako autostainer Link48 (Dako).\nFirst, membrane staining intensity (0, 1+, 2+, or 3+) was determined for each cell in a fixed field. The H-score was assigned using the following formula: [1×(% cells 1+)+2×(% cells 2+)+3×(% cells 3+)]. The final score, ranging from 0 to 300, gives more relative weight to higher-intensity membrane staining in a given tumor sample. The percentage of NOXA-, cleaved caspase-3-, cleaved PARP- and Ki67-positive cells (of the total number of cells) in each slide were counted."}, "[4]": {"system": "ARID1A-proficient and ARID1A-deficient cancer cell lines", "assay": "Cell viability and colony formation in cancer cell line panel", "assay_type": "cell-based, human", "conditions": "four ARID1A-proficient and six ARID1A-deficient cell lines; cell viability, colony formation"}}}
{"smiles": "COCC1(CO)C(=O)C2CCN1CC2", "note": "(centres unmarked) [APR-246]", "values": [{"measurement": "TrxR activity", "setting": "[1]; ARID1A-WT or ARID1A-KO HCT116 cells, same concentrations as decrease GSH", "value": "did not affect TrxR activity"}, {"measurement": "TrxR activity at a higher concentration", "setting": "[1]; HCT116 cells, 50 μM", "value": "suppressed TrxR activity"}, {"measurement": "mRNA expression of NOXA", "setting": "NOXA", "value": "increased"}, {"measurement": "apoptosis (caspase activation, Annexin V)", "setting": "[2]", "value": "induced apoptosis"}, {"measurement": "GSH level in xenograft cells", "setting": "[3]", "value": "decreased"}, {"measurement": "apoptotic markers NOXA, cleaved PARP, cleaved caspase-3 and proliferation marker Ki67 (IHC)", "setting": "[3]", "value": "markedly increased expression of the apoptotic markers NOXA, cleaved PARP, and cleaved caspase-3, and decreased expression of the cell proliferation marker Ki67"}, {"measurement": "oxidative stress marker 8-OHdG (IHC, H-score)", "setting": "[3]", "value": "increased the level of the oxidative stress marker 8-hydroxy-2′-deoxyguanosine (8-OHdG) markedly"}, {"measurement": "tumor weight", "setting": "[3]; BSO 750 mg/kg", "value": "reduced"}, {"measurement": "body weight of mice", "setting": "[3]; BSO 750 mg/kg once a day", "value": "did not cause significant loss of body weight"}, {"measurement": "growth of xenografts (tumor volume)", "setting": "[3]; intraperitoneally once daily 12-14 days, BSO 750 mg/kg", "value": "significantly suppressed the growth"}, {"measurement": "sensitivity of ARID1A-deficient versus ARID1A-proficient cancer cells", "setting": "[4]", "value": "more sensitive to APR-246 than ARID1A-proficient cancer cells"}]}
